Source: PubChem BioAssay AID328 (DTP/NCI, 2004)
Several values for one entry are separate records, joined by “and”; a condition that tells them apart may be missing. Identical values can stand only once. Inconclusive results and toxic doses are left out.

Tested on: BDF1 mice, P388 leukemia ip, median survival T/C
Test: NCI In Vivo Anticancer Drug Screen. Data for tumor model P388 Leukemia (intraperitoneal) in B6D2F1 (BDF1) mice
Conditions: endpoint: median survival time, higher = longer survival
Procedure, shortened: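 Reported as T/C, where T is the survival measurement in dosed animals and C the same measurement in vehicle controls.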

[1] = dose: 100.0 mg/kg/injection, schedule: Q04DX003 (ip), vehicle: saline
[2] = dose: 200.0 mg/kg/injection, schedule: Q04DX003 (ip), vehicle: saline
[3] = dose: 400.0 mg/kg/injection, schedule: Q04DX003 (ip), vehicle: saline
[4] = dose: 100.0 mg/kg/injection, schedule: Q01DX009 (ip), vehicle: saline

With `Oc1ccc(C=Nc2ccccc2N=Cc2ccc(O)c(O)c2)cc1O` as the molecule, how does the T/C (dose: 100.0 mg/kg/injection, schedule: Q01DX009 (ip), vehicle: saline with Tween-80) read?
Its T/C is 109 % of control.

What about the T/C (dose: 100.0 mg/kg/injection, schedule: Q04DX003 (ip), vehicle: saline with Tween-80) of the same molecule?
The T/C was 110 % of control.

What about the T/C (dose: 200.0 mg/kg/injection, schedule: Q01DX009 (ip), vehicle: saline with Tween-80) of the same molecule?
The T/C was 109 % of control.

And the T/C (dose: 200.0 mg/kg/injection, schedule: Q04DX003 (ip), vehicle: saline with Tween-80)?
Its T/C is 105 % of control.

And the T/C (dose: 400.0 mg/kg/injection, schedule: Q01DX009 (ip), vehicle: saline with Tween-80)?
The T/C was 104 % of control.

And the T/C (dose: 400.0 mg/kg/injection, schedule: Q04DX003 (ip), vehicle: saline with Tween-80)?
Its T/C is 110 % of control.

Which results are given for `NC(=O)N/N=C(\CF)C(=O)O`?
T/C (dose: 6.0 mg/kg/injection, schedule: Q01DX009 (ip), vehicle: Klucel (hydroxypropylcellulose) (HPC)): 105 % of control; T/C (dose: 12.0 mg/kg/injection, schedule: Q01DX009 (ip), vehicle: Klucel (hydroxypropylcellulose) (HPC)): 105 % of control; T/C (dose: 24.0 mg/kg/injection, schedule: Q01DX009 (ip), vehicle: Klucel (hydroxypropylcellulose) (HPC)): 115 % of control; T/C (dose: 48.0 mg/kg/injection, schedule: Q01DX009 (ip), vehicle: Klucel (hydroxypropylcellulose) (HPC)): 105 % of control

`CC(C)(C)CC(C)(C)c1ccc(O)cc1` was tested. Which T/C [1] did it give?
Its T/C is 100 % of control.

And the T/C [2]?
The T/C was 115 % of control.

What about the T/C [3] of the same molecule?
The T/C was 120 % of control.

Which T/C (dose: 10.0 mg/kg/injection, schedule: Q01DX009 (ip), vehicle: saline) does the source give for `CC1(C)N=C(N)N=C(N)N1c1ccc(C(=O)CCl)cc1` here?
Its T/C is 108 % of control.

What about the T/C (dose: 20.0 mg/kg/injection, schedule: Q01DX009 (ip), vehicle: saline) of the same molecule?
The T/C was 108 % of control.

What about the T/C (dose: 40.0 mg/kg/injection, schedule: Q01DX009 (ip), vehicle: saline) of the same molecule?
Its T/C is 118 % of control.

With `CCN(CC)Cc1c(C)[nH]c2ccc(N(C)C)cc2c1=O` as the molecule, how does the T/C (dose: 1.56 mg/kg/injection, schedule: Q01DX009 (ip), vehicle: water) read?
Its T/C is 86 % of control and 110 % of control.

What about the T/C (dose: 3.12 mg/kg/injection, schedule: Q01DX009 (ip), vehicle: water) of the same molecule?
Its T/C is 89 % of control and 100 % of control.

And the T/C (dose: 6.25 mg/kg/injection, schedule: Q01DX009 (ip), vehicle: water)?
Its T/C is 89 % of control.

And the T/C (dose: 12.5 mg/kg/injection, schedule: Q01DX009 (ip), vehicle: Klucel (hydroxypropylcellulose) (HPC))?
Its T/C is 99 % of control.

And the T/C (dose: 12.5 mg/kg/injection, schedule: Q01DX009 (ip), vehicle: water)?
The T/C was 120 % of control.

And the T/C (dose: 25.0 mg/kg/injection, schedule: Q01DX009 (ip), vehicle: Klucel (hydroxypropylcellulose) (HPC))?
The T/C was 108 % of control.

What about the T/C (dose: 25.0 mg/kg/injection, schedule: Q04DX003 (ip), vehicle: saline) of the same molecule?
Its T/C is 111 % of control.

What about the T/C (dose: 50.0 mg/kg/injection, schedule: Q01DX009 (ip), vehicle: Klucel (hydroxypropylcellulose) (HPC)) of the same molecule?
Its T/C is 99 % of control.

And the T/C (dose: 50.0 mg/kg/injection, schedule: Q04DX003 (ip), vehicle: saline)?
The T/C was 112 % of control.

What about the T/C [1] of the same molecule?
Its T/C is 104 % of control.

And the T/C (dose: 200.0 mg/kg/injection, schedule: Q01DX009 (ip), vehicle: Klucel (hydroxypropylcellulose) (HPC))?
Its T/C is 106 % of control.

Which results are given for `O=C(NC1=NN(c2ccccc2)C(=O)C1)c1ccccc1`?
T/C (dose: 37.5 mg/kg/injection, schedule: Q01DX009 (ip), vehicle: saline with Tween-80): 105 % of control; T/C (dose: 150.0 mg/kg/injection, schedule: Q01DX009 (ip), vehicle: saline with Tween-80): 96 % of control

`COc1ccc(CC2Cc3cc(OC)c(OC)cc3C=N2)cc1OC` (stereo not drawn) was tested. Which T/C (dose: 50.0 mg/kg/injection, schedule: Q01DX009 (ip), vehicle: saline) did it give?
Its T/C is 96 % of control.

What about the T/C [4] of the same molecule?
Its T/C is 107 % of control.

What about the T/C [1] of the same molecule?
Its T/C is 103 % of control.

What about the T/C [2] of the same molecule?
The T/C was 111 % of control.

`COc1cc(C=Nc2cc(Cl)c(O)c(Cl)c2)ccc1N(CCCl)CCCl` was tested. Which T/C (dose: 5.0 mg/kg/injection, schedule: Q04DX003 (ip), vehicle: saline with Tween-80) did it give?
The T/C was 181 % of control.

What about the T/C (dose: 8.0 mg/kg/injection, schedule: Q04DX003 (ip), vehicle: saline with Tween-80) of the same molecule?
Its T/C is 222 % of control.

What about the T/C (dose: 12.0 mg/kg/injection, schedule: Q04DX003 (ip), vehicle: saline with Tween-80) of the same molecule?
The T/C was 231 % of control and 211 % of control.

And the T/C (dose: 12.5 mg/kg/injection, schedule: Q04DX003 (ip), vehicle: saline with Tween-80)?
The T/C was 111 % of control.

What about the T/C (dose: 17.0 mg/kg/injection, schedule: Q04DX003 (ip), vehicle: saline with Tween-80) of the same molecule?
The T/C was 196 % of control.

What about the T/C (dose: 25.0 mg/kg/injection, schedule: Q04DX003 (ip), vehicle: saline with Tween-80) of the same molecule?
Its T/C is 215 % of control.

And the T/C (dose: 37.5 mg/kg/injection, schedule: Q04DX003 (ip), vehicle: saline with Tween-80)?
The T/C was 230 % of control.

And the T/C (dose: 50.0 mg/kg/injection, schedule: Q04DX003 (ip), vehicle: saline with Tween-80)?
The T/C was 100 % of control.

With `CC1(C)C2C=CC1C(CO)(CO)C2` (stereo not drawn) as the molecule, how does the T/C (dose: 100.0 mg/kg/injection, schedule: Q01DX001 (ip), vehicle: saline) read?
Its T/C is 100 % of control.

And the T/C [1]?
Its T/C is 100 % of control.

What about the T/C (dose: 200.0 mg/kg/injection, schedule: Q01DX001 (ip), vehicle: saline) of the same molecule?
The T/C was 104 % of control.

And the T/C [2]?
The T/C was 91 % of control.

And the T/C (dose: 400.0 mg/kg/injection, schedule: Q01DX001 (ip), vehicle: saline)?
The T/C was 108 % of control.

What about the T/C [3] of the same molecule?
Its T/C is 100 % of control.

`COc1cc(O)c(C(=O)c2ccccc2)cc1S(=O)(=O)O` was tested. Which T/C [4] did it give?
The T/C was 110 % of control.

What about the T/C [1] of the same molecule?
The T/C was 109 % of control.

And the T/C (dose: 200.0 mg/kg/injection, schedule: Q01DX009 (ip), vehicle: saline)?
Its T/C is 110 % of control.

What about the T/C [2] of the same molecule?
Its T/C is 100 % of control.

What about the T/C (dose: 400.0 mg/kg/injection, schedule: Q01DX009 (ip), vehicle: saline) of the same molecule?
The T/C was 110 % of control.

What about the T/C [3] of the same molecule?
Its T/C is 100 % of control.
